Some test systems named below: 786-0 renal; ACHN renal; EKVX NSCLC; HCT-15 colon; KM12 colon; MCF7 breast; SF-539 CNS; SK-MEL-28 melanoma; SK-OV-3 ovarian; UACC-257 melanoma.
Test in all cases: NCI tumour cell line growth inhibition, 48 h

These results are taken from PubChem BioAssay (NCI).

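Protocol summary: plate cells (96-well), add compound at 5 concentrations, incubate 48 h, interpolate endpoints linearly. The concentration for full growth arrest is given as TGI.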

Turning to `C/C=C(/C)C(=O)O[C@@H]1CCN2CC[C@H](COC(=O)/C(=C/C)CO)C12` (stereo not given in full), the TGI in the assay with 786-0 renal, in the assay with ACHN renal, in the assay on EKVX NSCLC, in the assay with HCT-15 colon, in the assay with KM12 colon and in the assay with MCF7 breast was over 100 µM each time. Moreover, the TGI with SF-539 CNS was over 100 µM; in the assay with SK-MEL-28 melanoma it was over 100 µM; in the assay with SK-OV-3 ovarian it was over 100 µM; with UACC-257 melanoma, 99.7 µM.
For `Cc1cc2oc(=N)c(C#N)c(C)c2cc1C`, the TGI in the assay with 786-0 renal, in the assay with ACHN renal, with EKVX NSCLC, in the assay on HCT-15 colon, in the assay on KM12 colon and in the assay on MCF7 breast was over 100 µM in each case. Further, the TGI with SF-539 CNS, in the assay on SK-MEL-28 melanoma, in the assay with SK-OV-3 ovarian and with UACC-257 melanoma was over 100 µM each time.
`COc1ccc(-[n+]2nc(S(=O)(=O)O)c(/C=C/c3ccc(N(C)C)cc3)cc2C#N)cc1`: the TGI in the assay on 786-0 renal, with ACHN renal, with EKVX NSCLC, in the assay with HCT-15 colon, in the assay on KM12 colon and in the assay on MCF7 breast was over 100 µM in each case. The TGI in the assay on SF-539 CNS, with SK-MEL-28 melanoma, with SK-OV-3 ovarian and with UACC-257 melanoma was over 100 µM in each case.
